This passage reports TGI and GI50 results from PubChem BioAssay (NCI).

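Dose response: 5 concentrations. Exposure: 48 h. Format: 96-well plates. Endpoint: linear interpolation; highest concentration if not reached. Abbreviation: GI50, concentration required for 50% inhibition of growth. TGI: concentration producing complete growth inhibition.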 A value given as a limit tells only on which side of the number the result lay.

Some test systems named below: 786-0 renal; HCT-116 colon; HOP-92 NSCLC; LOX IMVI melanoma; M14 melanoma; OVCAR-5 ovarian; OVCAR-8 ovarian; SF-268 CNS; SNB-19 CNS; U251 CNS.
What all share (assay): NCI-60 cell line screen, 48 h

Regarding `Nc1nc2nc3c(nc2c(=O)[nH]1)CN(c1ccc(C(=O)O)cc1)C3=O`, the TGI in the test with 786-0 renal, in the test on HCT-116 colon, with HOP-92 NSCLC, with LOX IMVI melanoma, with M14 melanoma and with OVCAR-5 ovarian was over 100 µM each time. The TGI with OVCAR-8 ovarian, in the test with SF-268 CNS, in the test on SNB-19 CNS and with U251 CNS was over 100 µM in each case.
Take `CC(=O)OCC1OC(n2cc(F)c(=O)[nH]c2=O)C(OC(C)=O)C1OC(C)=O` (stereo not given): the TGI is over 94.5 µM with 786-0 renal; 71.8 µM with HCT-116 colon; over 55.8 µM in the test with HOP-92 NSCLC; over 63.9 µM in the test on LOX IMVI melanoma; over 100 µM in the test with M14 melanoma; over 100 µM in the test on OVCAR-5 ovarian. The TGI in the test on OVCAR-8 ovarian is over 100 µM; with SF-268 CNS it was over 100 µM; with SNB-19 CNS it was over 100 µM; in the test on U251 CNS, over 95.5 µM.
Take `COc1ccccc1/C=C1\COc2ccc(O)c(O)c2C1=O`: the GI50 in the test with 786-0 renal is 2.2 µM; in the test with HCT-116 colon it was 1.61 µM; in the test with HOP-92 NSCLC, 2.98 µM; in the test on LOX IMVI melanoma, 1.26 µM; with M14 melanoma, 2.19 µM; with OVCAR-5 ovarian, 2.33 µM. In addition, the GI50 was 2.38 µM with OVCAR-8 ovarian, 2.22 µM in the test on SF-268 CNS, 2.61 µM in the test with SNB-19 CNS and 1.57 µM in the test with U251 CNS. The TGI turned out to be 6.72 µM in the test on 786-0 renal; 3.99 µM in the test with HCT-116 colon; 20.8 µM in the test with HOP-92 NSCLC; 2.66 µM in the test on LOX IMVI melanoma; 8.38 µM with M14 melanoma; 5.48 µM with OVCAR-5 ovarian. The TGI in the test with OVCAR-8 ovarian was over 100 µM; with SF-268 CNS, 8.42 µM; with SNB-19 CNS, 26.2 µM; with U251 CNS, 3.99 µM.
On to `COc1ccc(CCNc2nc3ccccc3c3[nH]c4ccccc4c23)cc1OC`, for which the GI50 in the test with 786-0 renal is 1.7 µM; in the test on HCT-116 colon, 1.71 µM; in the test on HOP-92 NSCLC, 2.43 µM; with LOX IMVI melanoma it was 2.28 µM; with M14 melanoma, 1.87 µM; with OVCAR-5 ovarian, 3.48 µM. Also, the GI50 in the test with OVCAR-8 ovarian is 2.02 µM; in the test on SF-268 CNS, 4.77 µM; with SNB-19 CNS, 3.84 µM; with U251 CNS, 2.97 µM. The TGI turned out to be 3.28 µM in the test on 786-0 renal; 3.52 µM in the test on HCT-116 colon; 8 µM in the test with HOP-92 NSCLC; 5.38 µM in the test on LOX IMVI melanoma; 3.5 µM in the test on M14 melanoma; 11.6 µM with OVCAR-5 ovarian. The TGI with OVCAR-8 ovarian came to 5.54 µM; in the test with SF-268 CNS, 20.6 µM; in the test on SNB-19 CNS, 15.4 µM; in the test on U251 CNS it was 10.3 µM.
Turning to `Cc1ncc(C(=O)Nc2ccc(CN3CCN(C)CC3)c(C(F)(F)F)c2)cc1C#Cc1c(N)ncc2ccc(C#N)cc12`, the GI50 in the test on 786-0 renal is 1.19 µM; with HCT-116 colon, 0.24 µM; in the test on HOP-92 NSCLC, 0.075 µM; with LOX IMVI melanoma, 0.092 µM; with M14 melanoma, 0.029 µM; with OVCAR-5 ovarian, 1.25 µM. Moreover, the GI50 is 4.77 µM in the test with OVCAR-8 ovarian, 1.4 µM in the test on SF-268 CNS, 6.71 µM in the test on SNB-19 CNS and 5.8 µM with U251 CNS. In addition, the TGI in the test with 786-0 renal turned out to be 3.06 µM; in the test with HCT-116 colon it was 5.94 µM; in the test with HOP-92 NSCLC, 1.25 µM; in the test on LOX IMVI melanoma, 0.791 µM; in the test with M14 melanoma it was 0.659 µM; in the test with OVCAR-5 ovarian, 10.9 µM. For the same compound, the TGI in the test on OVCAR-8 ovarian was 21.2 µM; in the test on SF-268 CNS it was 9.7 µM; in the test on SNB-19 CNS it was 15.6 µM; in the test with U251 CNS it was 14.4 µM.
On to `COC1CC(OC2OC(CO)C(O)C(O)C2O)/C(=C\C#N)C(O)C1OC` (stereo not given), for which the TGI in the test on 786-0 renal, with HCT-116 colon, in the test on HOP-92 NSCLC, with LOX IMVI melanoma, in the test on M14 melanoma and in the test on OVCAR-5 ovarian was over 100 µM throughout. The TGI with OVCAR-8 ovarian, in the test on SF-268 CNS, in the test on SNB-19 CNS and in the test with U251 CNS was over 100 µM throughout.
As for `O=C(CC1Sc2ccccc2NC1=O)Nc1cccc(Cl)c1` (stereo not given), the TGI in the test on 786-0 renal is over 100 µM; with HCT-116 colon, over 100 µM; in the test on HOP-92 NSCLC it was 86.1 µM; in the test with LOX IMVI melanoma, 48.2 µM; in the test on M14 melanoma, over 100 µM; in the test on OVCAR-5 ovarian it was over 100 µM. In addition, the TGI was 75.8 µM with OVCAR-8 ovarian, over 100 µM in the test on SF-268 CNS, over 100 µM with SNB-19 CNS and 82.8 µM in the test on U251 CNS.
Turning to `C=C1C(=O)OC(CCCCCCCC)C1C(=O)O` (stereo not given), the GI50 is 18.2 µM in the test with 786-0 renal; 11.9 µM in the test on HCT-116 colon; 12.1 µM in the test on HOP-92 NSCLC; 13.5 µM with LOX IMVI melanoma; 14.6 µM with M14 melanoma; 17 µM with OVCAR-5 ovarian. Besides, the GI50 in the test on OVCAR-8 ovarian was 19.4 µM; in the test with SF-268 CNS it was 19.5 µM; in the test on SNB-19 CNS, 17 µM; in the test with U251 CNS it was 15.6 µM. The TGI in the test on 786-0 renal amounted to 36.7 µM; in the test with HCT-116 colon it was 26.2 µM; in the test with HOP-92 NSCLC it was 25.4 µM; in the test with LOX IMVI melanoma, 26.9 µM; in the test on M14 melanoma, 29.7 µM; in the test with OVCAR-5 ovarian, 31.8 µM. Moreover, the TGI was 45.9 µM with OVCAR-8 ovarian, 39.6 µM with SF-268 CNS, 32.1 µM in the test with SNB-19 CNS and 29.4 µM with U251 CNS.
For the compound `O=C(Nc1ccc(Cl)c(Cl)c1)Nc1ccc(Cl)c([N+](=O)[O-])c1`, the GI50 was 1.49 µM with 786-0 renal; 0.813 µM in the test with HCT-116 colon; 0.66 µM with HOP-92 NSCLC; 1.03 µM in the test on LOX IMVI melanoma; 1.46 µM in the test on M14 melanoma; 2.79 µM in the test on OVCAR-5 ovarian. Besides, the GI50 in the test with OVCAR-8 ovarian was 1.44 µM; in the test on SF-268 CNS, 1.76 µM; in the test on SNB-19 CNS, 1.38 µM; in the test on U251 CNS, 1.13 µM. Further, the TGI in the test on 786-0 renal was 5.21 µM; with HCT-116 colon, 3.18 µM; in the test on HOP-92 NSCLC, 2.07 µM; with LOX IMVI melanoma it was 3.81 µM; in the test on M14 melanoma, 5.04 µM; with OVCAR-5 ovarian it was 9.29 µM. Also, the TGI in the test with OVCAR-8 ovarian was 8.91 µM; in the test on SF-268 CNS, 6.84 µM; with SNB-19 CNS, 5.29 µM; in the test on U251 CNS it was 4.3 µM.
